Experiments:
[1] = DRUGMATRIX: Atrial Natriuretic Factor (ANF) radioligand binding (ligand: [125I] ANF (rat)); format: cell membranes, Cavia porcellus, Dunkin-Hartley, Adrenal gland, Membrane; conditions: Not Active = under 50% inhibition at 10 µM
Substance-P receptor = Substance-P receptor (Homo sapiens, UniProt P25103); format: cell membranes, Membrane; conditions: cho; note: in other assays of this panel Not Active means under 50% inhibition at 10 µM
D(1A) dopamine receptor = D(1A) dopamine receptor (Homo sapiens, UniProt P21728); assay: DRUGMATRIX: Dopamine D1 radioligand binding (ligand: [3H] SCH-23390); format: cell membranes, CHO, Membrane; conditions: cho; Not Active = under 50% inhibition at 10 µM
D(1A) dopamine receptor, sequence (P21728 whole entry): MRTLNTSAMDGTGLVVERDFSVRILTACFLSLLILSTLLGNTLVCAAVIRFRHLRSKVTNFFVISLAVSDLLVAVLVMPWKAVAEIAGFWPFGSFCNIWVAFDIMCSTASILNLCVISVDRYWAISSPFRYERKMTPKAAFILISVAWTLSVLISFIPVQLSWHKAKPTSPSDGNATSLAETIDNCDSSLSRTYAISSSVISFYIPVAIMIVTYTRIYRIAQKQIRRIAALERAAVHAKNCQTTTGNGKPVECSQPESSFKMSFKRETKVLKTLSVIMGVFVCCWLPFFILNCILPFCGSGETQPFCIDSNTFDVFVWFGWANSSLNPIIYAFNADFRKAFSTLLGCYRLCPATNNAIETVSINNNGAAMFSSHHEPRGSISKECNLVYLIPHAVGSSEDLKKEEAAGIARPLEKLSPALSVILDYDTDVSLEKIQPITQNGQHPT

Endothelin-1 receptor = biological target: T1, Endothelin-1 receptor (Homo sapiens, UniProt P25101); format: cell membranes, Membrane; conditions: cho-k1; note: in other assays of this panel Not Active means under 50% inhibition at 10 µM
T1 sequence (P25101 whole entry): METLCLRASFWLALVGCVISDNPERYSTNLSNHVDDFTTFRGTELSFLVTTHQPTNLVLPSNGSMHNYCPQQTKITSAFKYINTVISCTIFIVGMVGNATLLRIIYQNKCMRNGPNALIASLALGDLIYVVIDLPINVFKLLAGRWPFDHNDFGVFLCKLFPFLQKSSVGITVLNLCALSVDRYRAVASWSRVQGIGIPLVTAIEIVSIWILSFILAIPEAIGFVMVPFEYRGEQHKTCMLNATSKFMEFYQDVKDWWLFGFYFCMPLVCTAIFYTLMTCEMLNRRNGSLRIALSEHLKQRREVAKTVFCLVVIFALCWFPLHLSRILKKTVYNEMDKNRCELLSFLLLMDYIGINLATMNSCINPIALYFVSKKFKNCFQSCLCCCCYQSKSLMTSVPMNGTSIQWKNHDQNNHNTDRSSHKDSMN

[2] = DRUGMATRIX: GABAA, Muscimol, Central radioligand binding (ligand: [3H] Muscimol); format: cell membranes, Rattus norvegicus, Wistar, Brain, Membrane; conditions: Not Active = under 50% inhibition at 10 µM
[3] = biological target: Delta-type opioid receptor (Homo sapiens, UniProt P41143); format: cell membranes, HEK293, Membrane; conditions: hek293; note: in other assays of this panel Not Active means under 50% inhibition at 10 µM
Delta-type opioid receptor, sequence (P41143 whole entry): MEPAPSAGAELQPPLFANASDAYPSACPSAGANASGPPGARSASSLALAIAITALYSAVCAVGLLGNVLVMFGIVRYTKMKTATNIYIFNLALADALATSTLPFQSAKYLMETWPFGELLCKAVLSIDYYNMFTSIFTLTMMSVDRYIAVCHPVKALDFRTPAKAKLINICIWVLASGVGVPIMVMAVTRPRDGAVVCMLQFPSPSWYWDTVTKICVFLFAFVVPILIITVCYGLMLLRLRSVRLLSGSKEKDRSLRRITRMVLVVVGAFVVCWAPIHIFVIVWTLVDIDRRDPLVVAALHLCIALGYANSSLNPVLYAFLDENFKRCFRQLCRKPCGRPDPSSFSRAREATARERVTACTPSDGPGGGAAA

[4] = DRUGMATRIX: Platelet-Derived Growth Factor (PDGF) radioligand binding (ligand: [125I] PDGF); format: cell-based; conditions: nih3t3; Not Active = under 50% inhibition at 10 µM
[5] = biological target: Voltage-gated inwardly rectifying potassium channel KCNH2 (Homo sapiens, UniProt Q12809); conditions: hek293; note: in other assays of this panel Not Active means under 50% inhibition at 10 µM
Voltage-gated inwardly rectifying potassium channel KCNH2, sequence (Q12809 whole entry): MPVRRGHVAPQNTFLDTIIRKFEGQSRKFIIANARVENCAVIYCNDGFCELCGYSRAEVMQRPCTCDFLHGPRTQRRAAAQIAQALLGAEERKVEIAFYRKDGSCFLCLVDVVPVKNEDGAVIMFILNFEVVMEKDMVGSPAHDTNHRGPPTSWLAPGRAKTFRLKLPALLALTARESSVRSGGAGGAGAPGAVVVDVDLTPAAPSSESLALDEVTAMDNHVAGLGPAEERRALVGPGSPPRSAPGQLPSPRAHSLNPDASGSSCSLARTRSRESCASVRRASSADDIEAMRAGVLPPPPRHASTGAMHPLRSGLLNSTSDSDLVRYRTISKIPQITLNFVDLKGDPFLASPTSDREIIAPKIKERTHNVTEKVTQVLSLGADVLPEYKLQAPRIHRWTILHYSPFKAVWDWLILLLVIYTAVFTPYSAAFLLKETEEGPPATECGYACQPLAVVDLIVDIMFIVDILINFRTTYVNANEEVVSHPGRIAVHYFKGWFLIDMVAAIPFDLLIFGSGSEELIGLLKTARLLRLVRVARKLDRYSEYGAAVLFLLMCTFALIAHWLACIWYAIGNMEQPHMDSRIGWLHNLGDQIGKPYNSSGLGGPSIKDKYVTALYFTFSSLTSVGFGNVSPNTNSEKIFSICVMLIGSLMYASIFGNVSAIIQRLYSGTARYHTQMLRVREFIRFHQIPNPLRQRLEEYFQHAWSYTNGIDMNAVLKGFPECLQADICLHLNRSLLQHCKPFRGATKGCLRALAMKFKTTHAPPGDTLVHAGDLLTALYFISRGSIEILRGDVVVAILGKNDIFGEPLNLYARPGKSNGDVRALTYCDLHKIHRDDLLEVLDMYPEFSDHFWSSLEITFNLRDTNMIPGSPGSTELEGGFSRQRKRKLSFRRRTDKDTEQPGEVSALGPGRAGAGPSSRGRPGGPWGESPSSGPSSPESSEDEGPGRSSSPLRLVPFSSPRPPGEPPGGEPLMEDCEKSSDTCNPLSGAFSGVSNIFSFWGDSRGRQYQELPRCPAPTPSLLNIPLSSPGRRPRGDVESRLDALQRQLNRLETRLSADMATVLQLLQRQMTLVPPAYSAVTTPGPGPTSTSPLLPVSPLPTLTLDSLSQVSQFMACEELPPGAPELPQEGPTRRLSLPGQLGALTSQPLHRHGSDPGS

Substance-P receptor, sequence (P25103 whole entry): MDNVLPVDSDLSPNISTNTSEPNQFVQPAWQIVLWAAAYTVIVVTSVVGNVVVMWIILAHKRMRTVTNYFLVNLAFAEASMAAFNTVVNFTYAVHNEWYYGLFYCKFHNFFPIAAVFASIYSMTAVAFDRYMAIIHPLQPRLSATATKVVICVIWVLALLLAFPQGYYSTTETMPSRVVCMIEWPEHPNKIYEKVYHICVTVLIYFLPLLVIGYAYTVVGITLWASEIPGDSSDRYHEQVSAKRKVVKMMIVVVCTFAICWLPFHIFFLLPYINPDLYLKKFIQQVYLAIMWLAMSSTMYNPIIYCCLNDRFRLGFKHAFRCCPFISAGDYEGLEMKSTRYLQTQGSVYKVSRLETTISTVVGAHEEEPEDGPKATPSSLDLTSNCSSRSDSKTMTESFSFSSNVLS

C[N+](C)(C)CCOP(=O)([O-])OC[C@H](O)CO
Not Active: IC50 [1] | Ki [1] | IC50 (Substance-P receptor) | IC50 (D(1A) dopamine receptor) | IC50 (Endothelin-1 receptor) | IC50 [2] | Ki [2] | IC50 [3] | IC50 [4] | Ki [4] | IC50 [5] | Ki [5]

CCC1(c2ccccc2)C(=O)NC(=O)NC1=O [PHENOBARBITAL]
Not Active: IC50 [1] | Ki [1] | IC50 (Substance-P receptor) | IC50 (D(1A) dopamine receptor) | IC50 (Endothelin-1 receptor) | IC50 [2] | Ki [2] | IC50 [3] | IC50 [4] | Ki [4] | IC50 [5] | Ki [5]

O=C(O)COC(=O)Cc1ccccc1Nc1c(Cl)cccc1Cl [ACECLOFENAC]
Not Active: IC50 [1] | Ki [1] | IC50 (Substance-P receptor) | IC50 (D(1A) dopamine receptor) | IC50 (Endothelin-1 receptor) | IC50 [2] | Ki [2] | IC50 [3] | IC50 [4] | Ki [4] | IC50 [5] | Ki [5]
